Experimental data taken from US6727241B2, “Anti-inflammatory compositions and methods of use” (Chemocentryx, priority 2002, dated 2004).
Where two headings read alike, the source gives them in different places.

Assays:
CCR1 [1] = target: T1, CCR1 (Homo sapiens, UniProt P32246); assay: Inhibition of CCR1 ligand binding (125I labeled MIP-1α binding to CCR1 expressing cells); set-up: expressed in transfected cells; host or cells: NSO murine myeloma (CCR1-NSO) or HEK 293 (CCR1-293)
T1 sequence (P32246 1-355): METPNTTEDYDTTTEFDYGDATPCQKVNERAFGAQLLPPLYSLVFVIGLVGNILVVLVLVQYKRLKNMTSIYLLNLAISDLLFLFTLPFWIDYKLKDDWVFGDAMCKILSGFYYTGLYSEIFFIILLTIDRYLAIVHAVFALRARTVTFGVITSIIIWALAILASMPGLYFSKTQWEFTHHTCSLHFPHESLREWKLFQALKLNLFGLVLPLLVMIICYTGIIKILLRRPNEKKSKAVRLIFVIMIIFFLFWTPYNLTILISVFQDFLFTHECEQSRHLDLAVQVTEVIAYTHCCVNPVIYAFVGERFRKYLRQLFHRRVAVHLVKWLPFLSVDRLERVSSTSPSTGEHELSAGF
Protocol: CCR1 expressing cells were centrifuged and resuspended in assay buffer (20 mM HEPES pH 7.1, 140 mM NaCl, 1 mM CaCl2, 5 mM MgCl2, and with 0.2% bovine serum albumin) to a concentration of 5.6×10^6 cells/ml (CCR1-NSO) or 2.2×10^6 cells/ml ([…].). Screening assays were set up as follows. First, 0.09 ml of cells (5×10^5 CCR1-NSO cells/well or 2×10^5 CCR1-293 cells/well) was added to the assay plates containing the compounds, giving a final concentration of ˜2-10 μM each compound. Then 0.09 ml of ^125I labeled MIP-1α (obtained from Amersham; Piscataway, N.J.) diluted in assay buffer to a final concentration of ˜50 pM, yielding ˜30,000 cpm per well, was added, the plates sealed and incubated for approximately 3 hours at 4° C. on a shaker platform. Reactions were aspirated onto GF/B glass filters pre-soaked in 0.3% polyethyleneimmine (PEI) solution, on a vacuum cell harvester (Packard Instruments; Meriden, Conn.). Scintillation fluid (50 μl; Microscint 20, Packard Instruments) was added to each well, the plates were sealed and radioactivity measured in a Top Count scintillation counter (Packard Instruments). Control wells containing either diluent only (for total counts) or excess MIP-1α or MIP-1β ([…], for non-specific binding) were used to calculate the percent of total inhibition for each set of compounds. After testing the CLIP plates, wells with 40% or greater inhibition were confirmed. If confirmed, the individual compounds of the CLIP's were tested for reactivity (deconvolution step). IC50 values are those concentrations required to reduce the binding of labeled MIP-1α to the receptor by 50%.
To identify small organic molecules that prevent the receptor CCR1 from binding ligand, an assay was employed that detected radioactive ligand (MIP-1α) binding to cells expressing exogenous CCR1 on the cell surface.
A NSO murine myeloma cell line (CCR1-NSO) and a human embryonic kidney (HEK) carcinoma cell line (CCR1-293) were constructed that constitutively expressed human CCR1 on the cell surface; these cells lack other chemokine receptors that bind MIP-1α. Equal numbers of cells were added to each well in the CLIP plate, where each pool contained 10 candidate organic compounds. The cells were then incubated with radio labeled MIP-1α. Unbound ligand was removed by washing the cells, and bound ligand was determined by quantifying radioactive counts. Cells that were incubated without any organic compound gave total counts; non-specific binding was determined by incubating the cells with unlabeled ligand and labeled ligand. Percent inhibition was determined by the equation:
% inhibition=1−[(sample cpm)−(nonspecific cpm)]/[(total cpm)−(nonspecific cpm)]×100
To ascertain a candidate compound's affinity for CCR1 as well as confirm its ability to inhibit ligand binding, inhibitory activity was titered over 1×10^−8 to 1×10^−4 M range of compound concentration. The assay was essentially the same as for the CLIP screens, except the amount of compound was varied; cell number and ligand concentration were held constant. Only those compounds that were commercially available at the time of the experiments were titered. Of the 22 candidates identified, the following 16 were subjected to dose response experiments: CCX-3343, CCX-1057, CCX-1307, CCX-1513, CCX-238, CCX-3345, CCX-3493, CCX-4425, CCX-4462, CCX-4682, CCX-469, CCX-5062, CCX-5119, CCX-541, CCX-6019 and CCX-6530.

CCR1 [2] = target: T1, CCR1; assay: Calcium mobilization in response to MIP-1α (INDO-1); type: cell-based; set-up: expressed in transfected cells; host or cells: HEK 293 (CCR1-293), pIRESpuro vector; key to MIP-1α: calcium pulse: +: pulse observed; −: no pulse observed; n.s.: non-specific signal; settings: for MIP-1α: calcium pulse: CCR1-293 or THP-1 cells loaded with INDO-1, compound 10 to 20 μM added before MIP-1α; for Comments (inhibition of calcium signaling) / Inhibition of CCR1 calcium signaling, result in words: Table 2; for Inhibition of CCR1 calcium signaling, result in words: MIP-1α versus bradykinin
Protocol: (§1) To detect the release of intracellular stores of calcium, cultured cells were incubated with 3 μM of INDO-1AM dye (Molecular Probes; Eugene, Oreg.) in cell media for 45 minutes at room temperature and washed with phosphate buffered saline (PBS). After INDO-1AM loading, the cells were resuspended in flux buffer (Hank's balanced salt solution (HBSS) and 1% FBS). Calcium mobilization was measured using a Photon Technology International spectrophotometer (Photon Technology International; New Jersey) with excitation at 350 nm and dual simultaneous recording of fluorescence emission at 400 nm and 490 nm. Relative intracellular calcium levels were expressed as the 400 nm/490 nm emission ratio. Experiments were performed at 37° C. with constant mixing in cuvettes each containing 10^6 cells in 2 ml of flux buffer. The chemokine ligands may be used over a range from 1 to 100 nM. The emission ratio was plotted over time (typically 2-3 minutes). Candidate ligand blocking compounds (10 to 20 μM) were added at 10 seconds, followed by chemokines at 60 seconds (MIP-1α; R&D Systems; Minneapolis, Minn.) and control […] (bradykinin; ICN Pharmaceutical, Costa Mesa, Calif.) at 150 seconds. In some experiments, candidate blocking compounds and cells were added simultaneously, and MIP-1α was added 40 seconds later.
CCR1 is a seven transmembrane, G-protein linked receptor. A hallmark of signaling cascades induced by the ligation of such receptors is the pulse-like release of calcium ions from intracellular stores. Calcium mobilization assays were performed to determine if the candidate MIP-1α inhibitory compounds were able to also block CCR1 signaling. To be useful, candidate compounds able to inhibit specifically ligand binding and signaling were desired.
(§2) Calcium ion release in response to MIP-1α binding was measured using the cell permeable INDO-1/AM indicator, which fluoresces in the presence of free, but not chelated, calcium ions. CCR1-293 or THP-1 cells were loaded with INDO-1 and assayed for calcium release in response to MIP-1α addition. To control for specificity, a second, non-CCR1 binding […], bradykinin, was added, which also signals via a seven transmembrane receptor. Without compound, a pulse of fluorescent signal will be seen upon MIP-1α addition.

[3] = tested on: bradykinin-induced calcium signaling; assay: Calcium mobilization in response to bradykinin (specificity control); type: cell-based, human; set-up: key: +: pulse observed; −: no pulse observed; n.s.: non-specific signal; settings: CCR1-293 or THP-1 cells loaded with INDO-1; compound 10 to 20 μM; bradykinin added after MIP-1α
Protocol: as §1, §2

[4] = CCR1-293 cells, compound titered 1×10^−8 to 1×10^−4 M, * = partially blocked MIP-1α binding at the highest tested concentration, read-out: IC50 (Inhibition Constant; μM), CCR1-MIP-1α binding
[5] = CCR1-NSO cells, compound titered 1×10^−8 to 1×10^−4 M, read-out: IC50 (Inhibition Constant; μM), CCR1-MIP-1α binding
[6] = compound titered 1×10^−8 to 1×10^−4 M, cells not given
[7] = dose response, cells not given, read-out: CCR1 affinity (MIP-1α binding)

With `O=C1NCCCCC1N(Cc1ccccc1F)C(=O)C(c1ccccc1)c1ccccc1` (stereo not shown) [CCX-469] the IC50 (CCR1 [1]; [4]) was 2 µM, the IC50 (CCR1 [1]; [5]) was 0.6 µM and the “MIP-1α: calcium pulse” value (CCR1 [2]) was “−”. The “Comments (inhibition of calcium signaling)” value (CCR1 [2]) was “Clear and specific”, the “Inhibition of CCR1 calcium signaling, result in words” value (shortened to “Inhibition of CCR1 calcium signaling”) (CCR1 [2]) was “able to significantly and specifically inhibit signaling from CCR1” and the “Bradykinin: calcium pulse” value [3] was “+”.

In the case of `Cc1ccc(C(/C(Cl)=C(\Cl)C(=O)O)c2ccc(C)cc2C)c(C)c1` [CCX-541], the IC50 (CCR1 [1]; [5]) is reported as 0.4 µM, the “MIP-1α: calcium pulse” value (CCR1 [2]) is reported as “n.s” and the “Comments (inhibition of calcium signaling)” value (CCR1 [2]) is reported as “Calcium levels increased non-”. For the same compound, the “Inhibition of CCR1 calcium signaling” value (CCR1 [2]) was “non-specific effects on calcium levels” and the “Bradykinin: calcium pulse” value [3] was “n.s”.

`O=C(C[n+]1ccc(-c2ccccc2)cc1)Nc1ccc([N+](=O)[O-])cc1` [CCX-1057] was tested, and the IC50 (CCR1 [1]; [4]) was 2 µM.

`c1ccc(C2C3=C(Nc4nc5ccccc5n42)c2ccccc2CCC3)cc1` (stereo not shown) [CCX-1080] gave an IC50 (CCR1 [1]; [4]) of 2 µM.

With `O=C(c1ccc(Cl)c(Cl)c1)C12CN3CN(CN(C3)C1)C2` [CCX-1307] the IC50 (CCR1 [1]; [4]) was 2 µM.

For `O=C(O)c1ccc2c(c1)C1C=CCC1C(C(=O)O)N2` (stereo not shown) [CCX-1959], the IC50 (CCR1 [1]; [5]) was 0.36 µM.

`CC[n+]1c(/C=C/C=C2/N(C)c3ccccc3C2(C)C)ccc2c1c1cc(Br)ccc1n2C` [CCX-2324] was tested, and the IC50 (CCR1 [1]; [4]) was 2 µM.

In the case of `CC1CCC(C(C)C)C(OCC(O)CN2CCN(c3ccc(F)cc3)CC2)C1` (stereo not shown) [CCX-3343], the “Dose-response inhibition of MIP-1α binding, result in words” value (“Dose-response inhibition” below) (CCR1 [1]; [6]) is reported as “failed to completely inhibit MIP-1α binding at the highest tested concentration” and the IC50 (CCR1 [1]; [7]) is reported as ~2 µM.

With `CC1CCC(C(C)C)C(OCC(O)CN2CCC(Cc3ccccc3)CC2)C1` (stereo not shown) [CCX-3345] the “Dose-response inhibition” value (CCR1 [1]; [6]) was “failed to completely inhibit MIP-1α binding at the highest tested concentration” and the IC50 (CCR1 [1]; [7]) was ~2 µM.

In the case of `S=c1[nH]nc(-c2ccc(Cl)cc2)n1-c1cccnc1` [CCX-3493], the IC50 (CCR1 [1]; [4]) is reported as 18 µM, the IC50 (CCR1 [1]; [5]) is reported as 1.7 µM and the “MIP-1α: calcium pulse” value (CCR1 [2]) is reported as “+”. The “Comments (inhibition of calcium signaling)” value (CCR1 [2]) was “No inhibition”, the “Inhibition of CCR1 calcium signaling” value (CCR1 [2]) was “did not affect signaling, whether MIP-1α or bradykinin induced” and the “Bradykinin: calcium pulse” value [3] was “+”.

`O=C(O)C1=C(Sc2ccc(Cl)cc2)CSC1` [CCX-4682] gave an IC50 (CCR1 [1]; [5]) of 44 µM.

`CC(=O)C1=C(O)C(=O)N(c2ccc(Br)cc2)C1c1ccc(F)cc1` (stereo not shown) [CCX-5062] was tested, and the “Dose-response inhibition” value (CCR1 [1]; [6]) was “failed to completely inhibit MIP-1α binding at the highest tested concentration” and the IC50 (CCR1 [1]; [7]) was ~2 µM.

With `COC(=O)c1cc(C#N)c(Sc2c([N+](=O)[O-])cc(C(F)(F)F)cc2[N+](=O)[O-])nc1C(OC)OC` [CCX-5119] the IC50 (CCR1 [1]; read-out: IC50 (Inhibition Constant; μM), CCR1-MIP-1α binding, CCR1-293 cells, compound titered 1×10^−8 to 1×10^−4 M, * = partially blocked MIP-1α binding at the highest tested concentration) was 45 µM.

In the case of `O=C(NN(Cc1c(F)cccc1Cl)c1ccccc1)C(Cl)(Cl)Cl` [CCX-6019], the IC50 (CCR1 [1]; [5]) is reported as 25 µM.
